# According to PubChem BioAssay (NCI):
#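 Cells were grown in 96-well plates and exposed to each compound for 48 hours at five concentrations; endpoints were interpolated linearly between bracketing concentrations, or set to the highest concentration if not reached. Here, GI50 denotes the concentration required for 50% inhibition of growth. Definition used: TGI = concentration required for complete inhibition of growth.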
# Experiments:
# Experiment in all cases: DTP human tumour cell line panel, 48 h
# SK-MEL-2 melanoma = system: SK-MEL-2 melanoma
# 786-0 renal = system: 786-0 renal
# SK-OV-3 ovarian = system: SK-OV-3 ovarian
# HCT-116 colon = system: HCT-116 colon
# SK-MEL-5 melanoma = system: SK-MEL-5 melanoma
# ACHN renal = system: ACHN renal
# UACC-257 melanoma = system: UACC-257 melanoma
# SF-539 CNS = system: SF-539 CNS
# LOX IMVI melanoma = system: LOX IMVI melanoma
# K-562 leukemia = system: K-562 leukemia
Compound,TGI (SK-MEL-2 melanoma),TGI (786-0 renal),TGI (SK-OV-3 ovarian),TGI (HCT-116 colon),TGI (SK-MEL-5 melanoma),TGI (ACHN renal),TGI (UACC-257 melanoma),TGI (SF-539 CNS),TGI (LOX IMVI melanoma),TGI (K-562 leukemia),GI50 (SK-MEL-2 melanoma),GI50 (786-0 renal),GI50 (SK-OV-3 ovarian),GI50 (HCT-116 colon),GI50 (SK-MEL-5 melanoma),GI50 (ACHN renal),GI50 (SF-539 CNS),GI50 (LOX IMVI melanoma)
C[N+](C)(C)CC1CCCCC1O (stereo not drawn),> 100 µM,> 100 µM,> 100 µM,> 100 µM,> 100 µM,> 100 µM,> 100 µM,> 100 µM,> 100 µM,,,,,,,,,
C=C1C(O)CC[C@]2(C)C1C1OC(C)(C)O[C@]13CC(=O)C(C)=C([C@H]1OC(C)(C)OC12)C3(C)C (stereo partly drawn),,> 100 µM,> 100 µM,> 100 µM,> 100 µM,> 100 µM,> 100 µM,> 100 µM,> 100 µM,> 100 µM,,,,,,,,
CCOC(=O)C1SC(=Nc2ccc(Cl)cc2)N=C1C (stereo not drawn),38.5 µM,30.7 µM,,30.2 µM,,49.7 µM,,33 µM,32.5 µM,43.3 µM,,,,,,,,
Cc1ccccc1NC(=O)C1C(=O)N(c2ccccc2C)C(=O)/C1=N\NC(N)=S (stereo not drawn),> 100 µM,> 100 µM,> 100 µM,> 100 µM,,> 100 µM,> 100 µM,> 100 µM,> 100 µM,> 100 µM,,,,,,,,
CCCCN(CCCC)C(=O)/C(CC(=O)c1cccc2ccccc12)=N\NC(=O)c1cc2ccccc2cc1O,45.7 µM,77.3 µM,,28 µM,32 µM,78.7 µM,52.8 µM,,35.9 µM,,,,,,,,,
CCN(C(=O)/C=C/c1ccco1)c1ccccc1,> 100 µM,> 100 µM,> 100 µM,> 100 µM,> 100 µM,> 100 µM,> 100 µM,,> 100 µM,> 100 µM,,,,,,,,
CC(=O)OC(Cn1cncn1)(Cn1cncn1)c1ccc(Cl)cc1Cl,> 100 µM,> 100 µM,> 100 µM,,> 100 µM,,> 100 µM,> 100 µM,> 100 µM,> 100 µM,,,,,,,,
Cn1c2c(c3ccccc31)CCN(CCN1CCN(c3cccc(Cl)c3)CC1)C2=O,,> 100 µM,> 100 µM,> 100 µM,62.6 µM,> 100 µM,,> 100 µM,> 100 µM,> 100 µM,,,,,,,,
O=C(N/N=C/c1cccc(F)c1)c1ccncc1,> 100 µM,> 100 µM,> 100 µM,> 100 µM,> 100 µM,> 100 µM,> 100 µM,,> 100 µM,,,,,,,,,
Cc1ccccc1C(=O)N1CCN(C(=O)c2ccccc2C)CC1,,> 100 µM,> 100 µM,> 100 µM,> 100 µM,> 100 µM,> 100 µM,> 100 µM,> 100 µM,> 100 µM,,,,,,,,
c1ccc2[nH]c(-c3ccc(Nc4nc(N5CCCCC5)nc(N5CCOCC5)n4)cc3)nc2c1,5.36 µM,3.21 µM,5.43 µM,3.87 µM,3.3 µM,> 100 µM,,5.75 µM,3.58 µM,,2.34 µM,1.54 µM,2.37 µM,1.91 µM,1.78 µM,3.14 µM,2.14 µM,1.75 µM
CCOC(=O)NC(=O)c1cn(CCN2CCN(C(=O)CCCCCCCCCCC(=O)N3CCN(CCn4cc(C(=O)NC(=O)OCC)c(=O)[nH]c4=O)CC3)CC2)c(=O)[nH]c1=O,,> 100 µM,> 100 µM,> 100 µM,> 100 µM,> 100 µM,> 100 µM,> 100 µM,> 100 µM,> 100 µM,,,,,,,,
